In brackets after ≈: the same amount, converted by molar mass. Where two headings read alike, the source gives them in different places.
Experiments:
ovary OVCAR-3 = test: Cancer cell growth inhibition, ovary OVCAR-3; type: cell-based, human; details: Table 1
Excerpt: (§1) (Boyd, M. R., Cancer: Principles and Practices of Oncology Updates; […], et al., Eds; Lippincott: Philadelphia, 1989, Vol. 10, No. 3, pp. 1-12; Boyd, et al., Drug Development Research 1995, 34, 91-109; Boyd, M. R., et al. Cytotoxic Anticancer Drugs: Models and Concepts for Drug Discovery and Development; Valeriote, A., et al., Eds, Kluwer Academic Publishers: Amsterdam, 1992, pp. 11-34.)

CNS SF-295 = test: Cancer cell growth inhibition, CNS SF-295; type: cell-based, human; details: Table 1
Excerpt: as §1

lung NCI-H460 = test: Cancer cell growth inhibition, lung NCI-H460; type: cell-based, human; details: lung NCI-H460; for IC50: Homo sapiens, read-out: Cancer Cell Line Results ED50
Excerpt: (§2) Evaluation of demethyloxyaaptamine (3), aaptamine (1), isoaaptamine (2) and hystatin 1 (11) against the Arizona State University Cancer Research Institute's human tumor cell line panel (Table 1) and the NCI 60-cell line human tumor screen were undertaken. (Boyd, M. R., Cancer: Principles and Practices of Oncology Updates; DeVita, et al., Eds; Lippincott: Philadelphia, 1989, Vol. 10, No. 3, pp. 1-12; Boyd, et al., Drug Development Research 1995, 34, 91-109; Boyd, M. R., et al. Cytotoxic Anticancer Drugs: Models and Concepts for Drug Discovery and Development; Valeriote, A., et al., Eds, Kluwer Academic Publishers: Amsterdam, 1992, pp. 11-34.)
(§3) Biology The cancer cell growth inhibitory properties were examined using the murine P388 lymphocytic leukemia cell line and a selection of human cancer cell lines.
(§4) All of the synthetic products were evaluated against a minipanel of human cancer cell lines, the murine P388 lymphocytic leukemia cell line and a selection of microorganisms.

colon KM 20L2 = test: Cancer cell growth inhibition, colon KM 20L2; type: cell-based, human; details: colon KM 20L2; for IC50: Homo sapiens, read-out: Cancer Cell Line Results ED50
Excerpt: as §2, §3, §4

melanoma SK-MEL-5 = test: Cancer cell growth inhibition, melanoma SK-MEL-5; type: cell-based, human; details: Table 1
Excerpt: as §1

renal A498 = test: Cancer cell growth inhibition, renal A498; type: cell-based, human; details: Table 1
Excerpt: as §1

[1] = tested on: murine P388 lymphocytic leukemia cell line; test: Cancer cell growth inhibition, murine P388 lymphocytic leukemia cell line; type: cell-based; details: for IC50: Mus musculus, read-out: Cancer Cell Line Results ED50
Excerpt: as §2, §3, §4

Enterococcus faecalis = test: Broth microdilution susceptibility assay, Enterococcus faecalis; type: cell-based
[2] = tested on: Stenotrophomonas maltophilia; test: Broth microdilution susceptibility assay, Stenotrophomonas maltophilia; type: cell-based
Enterobacter cloacae = test: Broth microdilution susceptibility assay, Enterobacter cloacae; type: cell-based
pancreas BXPC-3 = test: Cancer cell growth inhibition, pancreas BXPC-3; type: cell-based, human; details: pancreas BXPC-3
Description: as §3, §4

Cryptococcus neoformans = test: Broth microdilution susceptibility assay, Cryptococcus neoformans; type: cell-based
Candida albicans = test: Broth microdilution susceptibility assay, Candida albicans; type: cell-based
Streptococcus pneumoniae = test: Broth microdilution susceptibility assay, Streptococcus pneumoniae; type: cell-based
PKC alpha [3] = biological target: T1, PKC alpha (Homo sapiens, UniProt P17252); test: Inhibition of [3H]phorbol 12,13-dibutyrate binding to PKC alpha; details: 30 μM compound; read-out: inhibition of [3H]phorbol 12,13-dibutyrate binding to PKC alpha
Description: Isoaaptamine (2) and derivatives 4, 5, 7, 8, and 14-18 were evaluated as ligands for PKC, based on the initial report of activity for isoaaptamine (Patil, et al., PCT Int. Appl. WO 95/0584 March 1995). Activity was measured at 30 μM compound using inhibition of [^3H-20]phorbol 12,13-dibutyrate binding to PKC alpha as described previously (Kazanietz, M. G., et al., Molecular Pharmacol., 1993, 44, 298). Assays were carried out with triplicate measurements in either single or triplicate experiments, depending on the compound.
Compounds 4, 5, 9a-c, and 10a-d were evaluated as ligands for PKC, based on the initial report of activity for isoaaptamine. Activity was measured at 30 μM compound using inhibition of [20-^3H]phorbol 12,13-dibutyrate binding to PKC alpha as described previously (Kazanietz, M. G., et al., Characterization of Ligand and Substrate Specificity for the Calcium-Dependent and Calcium-Independent Protein Kinase C Isoenzymes, Molecular Pharmacol. 1993, 44, 298-307). Assays were carried out with triplicate measurement in either single or triplicate experiments, depending on the compound. Inhibition by 9a and 9b was 6.4% and 9.2%, respectively. That by 10a, 10b, and 10d was 11.8%, 12.6%, and 16.0%, respectively. That by other derivatives was 5% or less. We conclude that these compounds show only very weak activity as ligands for PKC.

Neisseria gonorrhoeae = test: Broth microdilution susceptibility assay, Neisseria gonorrhoeae; type: cell-based
PKC alpha [4] = biological target: T1, PKC alpha; test: Inhibition of PKC catalytic activity (peptide substrate phosphorylation); type: biochemical
Excerpt: We further evaluated the ability of the derivatives to inhibit PKC catalytic activity. […] Inhibition by 10c was 19.5±7.6% and inhibition by 4, 5, and 9a, b, c was 6% or less (all values are mean±SEM, three experiments). […] In both cases, the inhibition curves were steeper than predicted for a competitive inhibitor, consistent with a complicated mechanism of action (Hill coefficients for 10a and 10b of 1.5±0.1 and 2.0±0.5, respectively).

breast MCF-7 = test: Cancer cell growth inhibition, breast MCF-7; type: cell-based, human; details: breast MCF-7
Description: as §3, §4

[5] = tested on: Mycobacterium tuberculosis H37Rv; test: Microplate Alamar Blue Assay, Mycobacterium tuberculosis; type: cell-based; details: 6.25 μg/ml
Staphylococcus aureus = test: Broth microdilution susceptibility assay, Staphylococcus aureus; type: cell-based
prostrate DU-145 = test: Cancer cell growth inhibition, prostate DU-145; type: cell-based, human
Description: as §3, §4

Micrococcus luteus = test: Broth microdilution susceptibility assay, Micrococcus luteus; type: cell-based
CNS SF-268 = test: Cancer cell growth inhibition, CNS SF-268; type: cell-based, human; details: CNS SF-268
Description: as §3, §4

Escherichia coli = test: Broth microdilution susceptibility assay, Escherichia coli; type: cell-based
[6] = Stability of the substance (observation); type: physicochemical
Excerpt: When newly isolated, isoaaptamine (2) appears as a yellow colored powder that rapidly changes to dark green and finally brown or black, presumably due to air oxidation. […] For that purpose, isoaaptamine (2) was first phosphorylated with dibenzylphosphate (Pettit, G. R. et al., Anti-Cancer Drug Design 2000, 15, 203-216; Silverberg, L. J., Tetrahedron Lett. 1996, 37, 771-774). […] Scheme 2 below illustrates the aforementioned synthesis method. [drawing 17] Biology

[7] = Homo sapiens, Table 5, read-out: Cancer Cell Line Results ED50

## COc1cc2ccnc3c2c(c1OC)NC=C3 [Compound 1, aaptamine]
Ovary OVCAR-3
  Cancer Cell Line Results ED50: 4.90 µg/mL
CNS SF-295
  Cancer Cell Line Results ED50: 4.10 µg/mL
Lung NCI-H460; Table 1
  IC50: 3.2 µg/mL (≈ 14 µM)
Colon KM 20L2; Table 1
  IC50: 3.6 µg/mL (≈ 15.8 µM)
Melanoma SK-MEL-5
  Cancer Cell Line Results ED50: 4.30 µg/mL
Renal A498
  Cancer Cell Line Results ED50: 3.20 µg/mL
[1]; Table 1, leukemia murine P388
  IC50: 3.6 µg/mL (≈ 15.8 µM)

## COC1=Cc2ccnc3ccnc(c23)C1=O [Compound 3, 9-demethyloxyaaptamine]
Ovary OVCAR-3
  Cancer Cell Line Results ED50: 0.39 µg/mL
CNS SF-295
  Cancer Cell Line Results ED50: 2.80 µg/mL
Lung NCI-H460; Table 1
  IC50: 2.3 µg/mL (≈ 10.8 µM)
Colon KM 20L2; Table 1
  IC50: 2.1 µg/mL (≈ 9.9 µM)
Melanoma SK-MEL-5
  Cancer Cell Line Results ED50: 1.00 µg/mL
Renal A498
  Cancer Cell Line Results ED50: 4.20 µg/mL
[1]; Table 1, leukemia murine P388
  IC50: 0.31 µg/mL (≈ 1.46 µM)
[1]; murine P388
  P388 ED50: 0.31 µg/mL

## COc1ccc(CN2C=Cc3cc(OC)c(OC)c4c3c2cc[n+]4Cc2ccc(OC)cc2)cc1.[Br-] [Compound 10b, 8,9-Dimethoxy-1,4-bis-(4-methoxybenzyl)-4H-benzo-[de][1,6]naphthyridin-1-ium bromide]
Enterococcus faecalis; Table 6
  Range of minimum inhibitory concentration: 16 to 32 µg/mL
[2]; Table 6
  Range of minimum inhibitory concentration: * (no inhibition at 64 μg/mL)
Enterobacter cloacae; Table 6
  Range of minimum inhibitory concentration: * (no inhibition at 64 μg/mL)
Pancreas BXPC-3; [7]
  IC50: 0.11 µg/mL
Cryptococcus neoformans; Table 6
  Range of minimum inhibitory concentration: 32 to 64 µg/mL
Candida albicans; Table 6
  Range of minimum inhibitory concentration: * (no inhibition at 64 μg/mL)
Lung NCI-H460; Table 5
  IC50: 0.33 µg/mL
Colon KM 20L2; Table 5
  IC50: 0.13 µg/mL
Streptococcus pneumoniae; Table 6
  Range of minimum inhibitory concentration: 16 to 32 µg/mL
PKC alpha [3]
  inhibition at 30 µM: 12.6%
Neisseria gonorrhoeae; Table 6
  Range of minimum inhibitory concentration: 4 µg/mL
PKC alpha [4]
  Hill coefficient of PKC inhibition curve: 2.0±0.5
PKC alpha [4]; 30 μM compound, 1 μM phorbol 12-myristate 13-acetate, 100 μg/ml phospholipid, mean±SEM, three experiments, read-out: percent inhibition of PKC catalytic activity
  inhibition at 30 µM: 84.6 ± 1.1%
PKC alpha [4]; complete dose response curves, mean±SEM, 3 experiments, read-out: ID50 for inhibition of PKC catalytic activity
  IC50: 7.4 ± 1.2 µM
Breast MCF-7; Homo sapiens, MCF7, Table 5, read-out: Cancer Cell Line Results ED50
  IC50: 0.39 µg/mL
[5]
  inhibition at 6.25 µg/mL: 97%
Staphylococcus aureus; Table 6
  Range of minimum inhibitory concentration: 4 µg/mL
[1]; Table 5, leukemia P388
  IC50: 1.3 µg/mL
Prostrate DU-145; Homo sapiens, DU-145, Table 5, prostate DRU-145, read-out: Cancer Cell Line Results ED50
  IC50: 0.1 µg/mL
Micrococcus luteus; Table 6
  Range of minimum inhibitory concentration: <0.5 µg/mL
CNS SF-268; [7]
  IC50: 0.27 µg/mL
Escherichia coli; Table 6
  Range of minimum inhibitory concentration: * (no inhibition at 64 μg/mL)

## Disodium isoaaptamine 9-O-phosphate [Compound 11]
Enterococcus faecalis; Table 2
  Range of minimum inhibitory concentration: * (no inhibition at 64 ug/ml)
[2]; Table 2
  Range of minimum inhibitory concentration: * (no inhibition at 64 ug/ml)
Enterobacter cloacae; Table 2
  Range of minimum inhibitory concentration: * (no inhibition at 64 ug/ml)
Pancreas BXPC-3; Table 3
  Cancer cell growth inhibitory ED50: 0.74 µg/mL
Cryptococcus neoformans; Table 2
  Range of minimum inhibitory concentration: * (no inhibition at 64 ug/ml)
Candida albicans; Table 2
  Range of minimum inhibitory concentration: * (no inhibition at 64 ug/ml)
Lung NCI-H460; Table 1
  Cancer Cell Line Results ED50: >10 µg/mL
Lung NCI-H460; Table 3
  Cancer cell growth inhibitory ED50: 1.9 µg/mL
Colon KM 20L2; Table 1
  Cancer Cell Line Results ED50: >10 µg/mL
Colon KM 20L2; Table 3
  Cancer cell growth inhibitory ED50: 0.88 µg/mL
Streptococcus pneumoniae; Table 2
  Range of minimum inhibitory concentration: 16 to 32 µg/mL
[6]
  stability: more stable
Neisseria gonorrhoeae; Table 2
  Range of minimum inhibitory concentration: <0.5 µg/mL
Breast MCF-7; Table 3
  Cancer cell growth inhibitory ED50: 2.2 µg/mL
Staphylococcus aureus; Table 2
  Range of minimum inhibitory concentration: 64 µg/mL
[1]; Table 1, leukemia murine P388
  Cancer Cell Line Results ED50: 3.0 µg/mL
[1]; Table 3, leukemia P-388
  Cancer cell growth inhibitory ED50: 0.23 µg/mL
Prostrate DU-145; Table 3, prostrate DU-145
  Cancer cell growth inhibitory ED50: 0.52 µg/mL
Micrococcus luteus; Table 2
  Range of minimum inhibitory concentration: * (no inhibition at 64 ug/ml)
CNS SF-268; Table 3
  Cancer cell growth inhibitory ED50: 0.28 µg/mL
Escherichia coli; Table 2
  Range of minimum inhibitory concentration: * (no inhibition at 64 ug/ml)
